In ChEMBL document CHEMBL1201862, “PubChem BioAssay data set” (2004):
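These data come from cells grown in 96-well plates and exposed to compound for 48 hours at five concentrations. Abbreviation: GI50, concentration required for 50% inhibition of growth.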 The source made the active and inactive calls. Cut-off read from the data, not from the text of the source: active = GI50 up to about 1.1 µM and inactive = higher.

Assays:
Test in all cases: NCI anticancer screen, dose series, 48 h
[1] = test system: 786-0
[2] = test system: A549
[3] = test system: ACHN
[4] = test system: CCRF-CEM
[5] = test system: COLO 205
[6] = test system: DU-145
[7] = test system: EKVX
[8] = test system: HCC 2998
[9] = test system: HCT-116
[10] = test system: HCT-15
[11] = test system: HL-60
[12] = test system: HOP-62
[13] = test system: HOP-92
[14] = test system: HT-29
[15] = test system: Hs-578T
[16] = test system: IGROV-1
[17] = test system: K562
[18] = test system: KM12
[19] = test system: LOX IMVI
[20] = test system: M14
[21] = test system: MCF7
[22] = test system: MDA-MB-231
[23] = test system: MDA-MB-435
[24] = test system: MDA-N
[25] = test system: MOLT-4
[26] = test system: Malme-3M
[27] = test system: NCI-H226
[28] = test system: NCI-H23
[29] = test system: NCI-H460
[30] = test system: NCI/ADR-RES
[31] = test system: OVCAR-3
[32] = test system: OVCAR-4
[33] = test system: OVCAR-5
[34] = test system: OVCAR-8
[35] = test system: PC-3
[36] = test system: RPMI-8226
[37] = test system: SF-268
[38] = test system: SF-295
[39] = test system: SF-539
[40] = test system: SK-MEL-28
[41] = test system: SK-MEL-2
[42] = test system: SK-MEL-5
[43] = test system: SK-OV-3
[44] = test system: SN12C
[45] = test system: SNB-75
[46] = test system: SR
[47] = test system: SW-620
[48] = test system: T47D
[49] = test system: TK-10
[50] = test system: U-251
[51] = test system: UACC-257
[52] = test system: UACC-62
[53] = test system: UO-31
[54] = test system: BT-549
[55] = test system: CAKI-1
[56] = test system: RXF 393
[57] = test system: SNB-19
[58] = test system: A498
[59] = test system: NCI-H522

Measured: GI50

O=C1NC(Nc2ccccc2)=NC(C(F)(F)F)(C(F)(F)F)N1
inactive: [1] 39.1 µM | [2] 40.9 µM | [3] 35.1 µM | [4] 48.6 µM | [5] 33.4 µM | [6] 35.9 µM | [7] 38.4 µM | [8] 46.7 µM | [9] 34.6 µM | [11] 31.6 µM | [12] 53.3 µM | [13] 20.7 µM | [14] 56.2 µM | [15] 55.3 µM | [16] 54 µM | [17] 49.3 µM | [18] 41.6 µM | [19] 37.2 µM | [20] 21.4 µM | [21] 37.9 µM | [22] 57.1 µM | [23] 43 µM | [24] 25.1 µM | [25] 54.5 µM | [26] 30.1 µM | [27] 41.1 µM | [28] 23.4 µM | [29] 32.8 µM | [30] 71.1 µM | [31] 37.9 µM | [32] 39.6 µM | [33] 42.8 µM | [34] 40.2 µM | [35] 20.5 µM | [36] 34.1 µM | [37] 39.8 µM | [38] 37 µM | [39] 74.5 µM | [40] 47.2 µM | [41] 19.9 µM | [42] 25.1 µM | [43] 64 µM | [44] 36.6 µM | [45] 11.5 µM | [46] 40.1 µM | [47] 71.8 µM | [48] 36.4 µM | [49] 68.4 µM | [50] 27.9 µM | [51] 59.7 µM | [52] 50.4 µM | [53] 30.8 µM
51.1 µM: [10]

COC(=O)[C@@H]1C[C@H]2[C@H](c3ccccc3Br)[C@@H](OC(C)=O)[C@@H](OCc3ccccc3)ON2O1
> 100 µM: [10]
inactive: [1] > 100 µM | [2] > 100 µM | [3] > 100 µM | [54] > 100 µM | [55] > 100 µM | [4] 49.4 µM | [5] > 100 µM | [6] > 100 µM | [7] > 100 µM | [8] 51.9 µM | [9] > 100 µM | [12] > 100 µM | [14] > 100 µM | [16] 21.9 µM | [17] > 100 µM | [18] > 100 µM | [19] > 100 µM | [20] > 100 µM | [21] > 100 µM | [22] > 100 µM | [23] > 100 µM | [24] > 100 µM | [25] 45.3 µM | [28] > 100 µM | [29] 92.3 µM | [30] > 100 µM | [31] 19.6 µM | [32] > 100 µM | [33] > 100 µM | [34] > 100 µM | [35] > 100 µM | [56] > 100 µM | [37] > 100 µM | [38] > 100 µM | [39] > 100 µM | [40] > 100 µM | [41] 69.2 µM | [42] > 100 µM | [43] > 100 µM | [44] > 100 µM | [57] > 100 µM | [45] > 100 µM | [46] > 100 µM | [47] > 100 µM | [48] > 100 µM | [49] > 100 µM | [50] > 100 µM | [51] > 100 µM | [52] > 100 µM | [53] > 100 µM

O=[N+]([O-])c1ccc2sc(/C=N/c3ccc(O)cc3)cc2c1
inactive: [1] 19 µM | [58] 72.8 µM | [2] 48 µM | [3] 32.2 µM | [54] 22.3 µM | [55] 20.6 µM | [4] 15.3 µM | [5] 38 µM | [6] 32.8 µM | [7] 48.1 µM | [8] 21.8 µM | [9] 27.9 µM | [11] 18.9 µM | [12] 34.7 µM | [13] 32.4 µM | [14] 46.9 µM | [15] 18.9 µM | [16] 31.4 µM | [17] 18.1 µM | [18] 33.7 µM | [19] 23.3 µM | [20] 31.3 µM | [21] 20.1 µM | [22] 17.8 µM | [23] 18.2 µM | [24] 27.3 µM | [25] 15.8 µM | [26] 28.3 µM | [28] 27.9 µM | [29] 46 µM | [59] 27.7 µM | [30] 28.8 µM | [31] 15.2 µM | [33] 62.2 µM | [34] 32.2 µM | [35] 29.6 µM | [36] 22.3 µM | [56] 21.5 µM | [37] 29.5 µM | [38] 42.3 µM | [39] 22 µM | [40] 36.1 µM | [41] 22 µM | [42] 21.8 µM | [43] 84.7 µM | [44] 30.1 µM | [57] 34 µM | [45] 25.8 µM | [46] 29.1 µM | [47] 17 µM | [49] 63.7 µM | [50] 19.8 µM | [51] 23 µM | [52] 23.1 µM | [53] 41 µM
32.4 µM: [10]

COc1ccc(CN2C(=O)C(=O)N(C)C2=O)c2ccccc12
> 10 µM: [10]
inactive: [58] > 10 µM | [2] > 10 µM | [3] > 10 µM | [55] > 10 µM | [4] > 10 µM | [5] > 10 µM | [6] > 10 µM | [7] > 10 µM | [8] > 10 µM | [9] > 10 µM | [11] > 10 µM | [12] > 10 µM | [14] > 10 µM | [15] 1.55 µM | [16] > 10 µM | [17] > 10 µM | [18] > 10 µM | [19] > 10 µM | [20] > 10 µM | [21] > 10 µM | [22] > 10 µM | [23] > 10 µM | [24] 7.06 µM | [25] > 10 µM | [26] > 10 µM | [27] > 10 µM | [28] > 10 µM | [29] > 10 µM | [59] 9.68 µM | [30] > 10 µM | [31] > 10 µM | [32] > 10 µM | [33] > 10 µM | [34] > 10 µM | [35] > 10 µM | [36] > 10 µM | [56] > 10 µM | [37] > 10 µM | [38] > 10 µM | [39] > 10 µM | [40] > 10 µM | [41] > 10 µM | [42] > 10 µM | [43] > 10 µM | [44] > 10 µM | [57] > 10 µM | [45] > 10 µM | [46] > 10 µM | [47] > 10 µM | [48] > 10 µM | [49] > 10 µM | [50] > 10 µM | [52] > 10 µM | [53] > 10 µM

O=C(O)CNC(=O)C(CSC(=O)OCC1c2ccccc2-c2ccccc21)NC(=O)CCC(NC(=O)OCC1c2ccccc2-c2ccccc21)C(=O)O (configuration not stated)
20 µM: [10]
inactive: [1] 3.05 µM | [2] 14.3 µM | [3] 18.4 µM | [54] > 100 µM | [55] 4.57 µM | [4] 20.2 µM | [5] 16.5 µM | [6] 15.3 µM | [7] 17.8 µM | [8] > 100 µM | [9] 18 µM | [11] 28.8 µM | [12] 14.2 µM | [13] 21.7 µM | [15] 68.1 µM | [16] 13.1 µM | [17] 17.1 µM | [20] > 100 µM | [21] > 100 µM | [22] 17.9 µM | [23] 18.9 µM | [24] 28.1 µM | [25] 20.1 µM | [26] 20.7 µM | [27] 38.8 µM | [28] 27 µM | [29] 18.6 µM | [59] 1.57 µM | [30] 17.5 µM | [31] > 100 µM | [32] 15 µM | [33] > 100 µM | [34] 16.4 µM | [35] 15.5 µM | [36] 21.5 µM | [56] 18.7 µM | [37] 17.5 µM | [38] 16.6 µM | [39] 16.3 µM | [40] > 100 µM | [41] > 100 µM | [42] 63.4 µM | [43] > 100 µM | [44] 16.5 µM | [57] > 100 µM | [46] 3.49 µM | [47] 19 µM | [49] 22.2 µM | [51] > 100 µM | [53] 18.7 µM
active: [19] 0.0259 µM
